Like-named read-outs stand apart in the source and are kept apart here.

Broadly, the CC50 is the concentration giving 50% cytotoxicity.

Common to all, as to format: cell-based
The nature of data set [1]: Test of cytotoxicity of the compound (MT-4 cells, XTT). Particulars: human. As for the experimental part: 1) Test of cytotoxicity of the compound: The test compound was evaluated using a starting concentration of 100 nM and five serial half-log dilutions. Each compound was present in the test medium at a concentration 2 folds of the final desired test concentration. The compound was diluted to 1 mM in DMSO. The compound was then diluted to 200 nM in a drug dilution tube containing 998 μL of test medium (adding 2 μL of 1 mM stock). […] of the 200 nM solution was transferred into 680 μL of the test medium (half-log dilution), and a total of five serial dilutions were carried out. 100 microliters (100 μL) of the solution of each concentration was added to duplicate wells for cytotoxicity evaluation, and each concentration was added to one well for colorimetric evaluation.
Cell culture: MT-4 cells were passaged in a T-75 flask before use in the antiviral assay. On the day before the assay, cells were passaged in aliquots at a 1:2 ratio to ensure that they were in the exponential growth phase at the time of infection. Total cells and viable cells were quantified using a hemocytometer and trypan blue dye. The proportion of viable cells used for the assay was greater than 95%. The cells were resuspended in tissue culture medium at 5×10^4 cells per milliliter, and the resulting suspension was added to a drug-containing microtiter plate in a volume of 50 μL.
Evaluation of the efficacy and toxicity of the compound with XTT: After culturing for six days in a 37° C., 5% CO2 incubator, tetrazolium dye XTT (2,3-bis(2-methoxy-4-nitro-5-sulfophenyl)-5-[(phenylamino)carbonyl]-2H-tetrazolium hydroxide) was added to the cell culture plate to conduct the test. The XTT solution was a 1 mg/ml RPMI1640 stock solution prepared on the same day. Phenazine methyl sulfate (PMS) solution at a concentration of 0.15 mg/ml was prepared in PBS, and stored in the dark at −20° C. XTT/PMS stock solution was prepared before use by adding 40 μl of PMS per milliliter of XTT solution. […] of XTT/PMS was added to each well of the plate, and the plate was re-incubated for 4 hours at 37° C. The plate was sealed with adhesive plate sealant, and gently shaked or inverted several times to mix the soluble formazan product. The absorbance was read at 450/650 nm.
Background: Formazan colour is commonly taken as a measure of viable cells.

The subject of data set [2] is HIV-1 integrase E138K pseudovirus. Nature of the data set: Pseudovirus-based assay of anti-HIV-1 activity, E138K strain. Particulars: HEK-293T, 72 h. As to the method: (§1) The inhibitory activity against pseudoviruses containing common clinical mutation sites of HIV-1 integrase (G140S/Q148R, Q148R/N155H, E138K, Q148H, R263K and Y143R/Q148H) was determined.
(§2) Preparation of pseudovirus: Using the lentiviral plasmid pNL4-3-Luc-RE (HedgehogBio) as the backbone, an integrase point mutation plasmid was constructed. HEK293T cells (ATCC) were seeded in a 6-well plate at 5×10^5 cells per well. After 24 hours, when the cell density reached 60% to 80%, transfection was performed. pNL4-3-Luc-R-E- or pNL4-3-Luc-R-E--IN-mutant plasmid and lentivirus packaging plasmid pMD2.G (Beijing Zoman Bio) were added to the transfection reagent in a certain proportion. Cell transfection was performed according to the instructions of transfection reagent PEI25K (Maokang Biotechnology). After 48 hours, the supernatant was collected, centrifuged at 3000 rpm for 5 minutes, filtered with a 0.45 μm microporous membrane, aliquoted, and stored at −80° C. for later use. In HEK293T cells, the pseudovirus titer was determined based on luciferase activity.
(§3) Determination of antiviral activity of compounds: In a 96-well V-bottom plate, the compound to be tested was diluted with DMSO semi-logarithmically, and a compound solution 4 times the final concentration was prepared for later use. According to the results of different virus titrations, the virus was diluted with complete culture medium for later use. HEK293T cells were digested with trypsin to obtain a cell suspension of 2×10^5/mL. 50 µl of compound diluent, 50 µl of virus diluent and 100 µl of cell suspension were added successively to a 96-well flat-bottomed plate. The final concentration of the compound was 1000 nM to 0.1 nM. The 96-well plate was incubated in a 37° C., 5% CO2 incubator. After 72 hours, 100 µL of culture supernatant was pipetted out carefully from each well of the 96-well plate, 25 µL of Steady-Glo detection reagent (Promega, Cat #E2550) was added to each well in the dark, and then assayed on a machine (Tecan, Type #Spark).

For data set [3], the system named is HIV-1 integrase G140S/Q148R pseudovirus. Nature of the data set: Pseudovirus-based assay of anti-HIV-1 activity, G140S/Q148R strain. To be noted: HEK-293T, 72 h. As for the experimental part:
as §1, §2, §3

The subject of data set [4] is HIV-1 integrase R263K pseudovirus. Put plainly: Pseudovirus-based assay of anti-HIV-1 activity, R263K strain. To be noted: HEK-293T, 72 h. As to the method: as §1, §2, §3
Data set [5] concerns HIV-1 integrase Y143R/Q148H pseudovirus. Put plainly: Pseudovirus-based assay of anti-HIV-1 activity, Y143R/Q148H strain. Particulars: HEK-293T, 72 h. As to the method:
as §1, §2, §3

Data set [6] concerns HIV-1 subtype A RW/92/009. Put plainly: Inhibitory activity against clinical HIV-1 strain RW/92/009 in PBMC. Particulars: for EC50: read-out: hPBMC/HIV-1 EC50; for EC90: read-out: hPBMC/HIV-1 EC90. As to the method:
(§4) Preparation of virus: Clinical HIV-1 virus strains (Table 3) were obtained from the US NIH AIDS Research and Reference Reagent Library. PBMC were extracted from three fresh blood samples that were HIV and HBV seronegative, mixed and cultured, and PHA-P (phytohemagglutinin) was added to stimulate activation. The cells and virus were incubated at 37° C./5% CO2, and the cell culture supernatant after infection was collected and stored frozen at −80° C. Each viral titer was titrated in pooled PBMCs from three donors.
(§5) Assay of antiviral activity of compounds: Frozen PBMCs were resuspended in fresh culture medium (1×10^6 cells/mL), and added to a round-bottom 96-well plate ([…]). 100 μl of culture medium containing 2 times the final concentration of the compound was added to each well, and then 50 μL of virus solution was added (the final infection dose was MOI=0.002). After 7 days of culture, the reverse transcriptase activity in the supernatant was determined to evaluate HIV-1 replication. At the same time, a 96-well culture plate with only compounds and cells was prepared for the assay of compound cytotoxicity.

For data set [7], the system named is HIV-1 integrase Q148R/N155H pseudovirus. Put plainly: Pseudovirus-based assay of anti-HIV-1 activity, Q148R/N155H strain. Particulars: HEK-293T, 72 h. As for the experimental part:
as §1, §2, §3

Data set [8] deals with HIV-1 subtype C MW/93/959. Put plainly: Inhibitory activity against clinical HIV-1 strain MW/93/959 in PBMC. To be noted: for EC50: read-out: hPBMC/HIV-1 EC50; for EC90: read-out: hPBMC/HIV-1 EC90. As for the experimental part:
as §4, §5

Data set [9] relates to HIV-1 integrase Q148H pseudovirus. Put plainly: Pseudovirus-based assay of anti-HIV-1 activity, Q148H strain. Particulars: HEK-293T, 72 h. As to the method:
as §1, §2, §3

Data set [10] deals with WT (wild type) pseudovirus. Nature of the data set: Pseudovirus-based assay of anti-HIV-1 activity, WT strain. To be noted: HEK-293T, 72 h. As to the method: as §1, §2, §3
Data set [11] deals with HIV-1 subtype D UG/92/001. Put plainly: Inhibitory activity against clinical HIV-1 strain UG/92/001 in PBMC. To be noted: for EC50: read-out: hPBMC/HIV-1 EC50; for EC90: read-out: hPBMC/HIV-1 EC90. As for the experimental part:
as §4, §5

Where [12] appears, read: Human immunodeficiency virus 1, 168 h, RW/92/009, human PBMC, 7 days, reverse transcriptase activity in supernatant.
Where [13] appears, read: Human immunodeficiency virus 1, 168 h, MW/93/959, human PBMC, 7 days, reverse transcriptase activity in supernatant.
Where [14] appears, read: Human immunodeficiency virus 1, 168 h, UG/92/001, human PBMC, 7 days, reverse transcriptase activity in supernatant.
Setting [15] is: Human immunodeficiency virus 1, PBMC, 168 h.

As for `C[C@H]1CO[C@@H]2Cn3cc(C(=O)NCc4ccc(F)cc4F)c(=O)c(O)c3C(=O)N12` [Cabotegravir, cabotegravir], the CC50 at 6 days in data set [1] was above 100 nM. Also, the EC50 in data set [2] came out at 3.7 nM; in [3], 63.5 nM; in data set [4], 4.9 nM; in data set [5], 4.2 nM; in data set [6] (setting [12]), 0.09 nM; in [7], 98 nM. The EC50 in data set [8] (setting [13]) turned out to be 0.06 nM; in [9] it was 3.6 nM; in [10], 3 nM; in [11] (setting [14]), 0.46 nM. The EC90 in data set [2] was 24.4 nM; in data set [3], 301 nM; in [4], 58.8 nM; in data set [5], 24.8 nM; in data set [6] (setting [12]), 0.59 nM; in data set [7], above 1000 nM. The EC90 in data set [8] (setting [13]) came to 0.67 nM; in data set [9], 15.4 nM; in data set [10] it was 21.8 nM; in data set [11] (setting [14]) it was 2.94 nM.

For the molecule `O=C(NCc1ccc(F)cc1F)c1cn2c(c(O)c1=O)C(=O)N1[C@@H](CF)CO[C@@H]1C2` [Compound 2], the CC50 at 6 days in data set [1] was above 100 nM. The EC50 amounted to 2.3 nM in [2]; 42.2 nM in data set [3]; 2.9 nM in [4]; 3.1 nM in data set [5]; 0.02 nM in data set [6] (setting [15]); 82.3 nM in data set [7]. Moreover, the EC50 was determined as 0.007 nM in data set [8] (setting [15]), 2.2 nM in [9], 1.8 nM in [10] and 0.28 nM in data set [11] (setting [15]). Moreover, the EC90 in [2] was 14.1 nM; in data set [3] it was 194 nM; in data set [4] it was 25.1 nM; in data set [5] it was 14.1 nM; in [6] (setting [15]) it was 0.4 nM; in data set [7], above 1000 nM. In addition, the EC90 in [8] (setting [15]) stood at 0.37 nM; in [9], 12.5 nM; in data set [10], 12.9 nM; in [11] (setting [15]), 1.28 nM.

The values are drawn from US20250188091A1, “PYRIDONE COMPOUND HAVING INTEGRASE INHIBITORY ACTIVITY AND PHARMACEUTICAL USE THEREOF” (priority 2021, published 2025).
